This note sets out measurements from PubChem BioAssay (NCI).

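All cell lines were grown in 96-well plates and treated with compound for 48 hours. GI50: concentration for 50% inhibition of growth. TGI is the concentration that stops growth completely.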

Among the test systems are MDA-MB-231 breast; NCI/ADR-RES ovarian; TK-10 renal; BT-549 breast; UO-31 renal; RXF 393 renal; HL-60(TB) leukemia; EKVX NSCLC; NCI-H226 lung; SNB-75 CNS.
Holding throughout (assay): growth of human tumour cells (NCI), 48 h

`C=C1C(=O)O[C@H]2[C@H]1CC/C(COC(=O)CCC(=O)OC/C1=C/CC[C@@]3(C)O[C@H]3[C@H]3OC(=O)C(=C)[C@@H]3CC1)=C\CC[C@@]1(C)O[C@@H]21`: the GI50 in the test on MDA-MB-231 breast was 1650 nM; in the test with NCI/ADR-RES ovarian, 14000 nM; with TK-10 renal it was 1750 nM; with BT-549 breast, 1400 nM; in the test with UO-31 renal it was 1020 nM; with RXF 393 renal, 661 nM. Moreover, the GI50 with HL-60(TB) leukemia was 233 nM; in the test with EKVX NSCLC, 2550 nM; in the test on NCI-H226 lung it was 2460 nM; in the test with SNB-75 CNS it was 15100 nM. Besides, the TGI came to 3720 nM with MDA-MB-231 breast; 40500 nM with NCI/ADR-RES ovarian; 3380 nM in the test on TK-10 renal; 2830 nM in the test with BT-549 breast; 2390 nM in the test on UO-31 renal; 2170 nM in the test with RXF 393 renal. Moreover, the TGI in the test with HL-60(TB) leukemia was 812 nM; in the test with EKVX NSCLC, 11600 nM; with NCI-H226 lung it was 11700 nM; with SNB-75 CNS, 45700 nM.
Take `CSC(=S)N/N=C(\C)c1ccccn1`: the GI50 was 113 nM in the test on MDA-MB-231 breast; 26.2 nM in the test on NCI/ADR-RES ovarian; 527 nM in the test with TK-10 renal; 440 nM in the test on BT-549 breast; 154 nM with UO-31 renal; 261 nM in the test on RXF 393 renal. The GI50 with HL-60(TB) leukemia is less than 45.3 nM; in the test on EKVX NSCLC it was 117 nM; in the test with NCI-H226 lung, 335 nM; with SNB-75 CNS, 1470 nM. Besides, the TGI is 8980 nM in the test with MDA-MB-231 breast; 15700 nM with NCI/ADR-RES ovarian; 24200 nM in the test on TK-10 renal; 14800 nM in the test with BT-549 breast; 11800 nM with UO-31 renal; 3100 nM with RXF 393 renal. Moreover, the TGI in the test with HL-60(TB) leukemia is 180 nM; in the test with EKVX NSCLC, 17500 nM; in the test with NCI-H226 lung, 3450 nM; in the test with SNB-75 CNS, 32300 nM.
For the compound `Oc1ccc2ccccc2c1/C=N\Nc1ccccn1`, the GI50 was 463 nM in the test with MDA-MB-231 breast; 281 nM in the test on NCI/ADR-RES ovarian; 4850 nM in the test with TK-10 renal; 3840 nM with BT-549 breast; 114 nM with UO-31 renal; 1550 nM in the test on RXF 393 renal. Moreover, the GI50 in the test on HL-60(TB) leukemia was 267 nM; in the test on EKVX NSCLC, 656 nM; in the test on NCI-H226 lung, 2200 nM; in the test on SNB-75 CNS, 1030 nM. Besides, the TGI with MDA-MB-231 breast was more than 43000 nM; in the test on NCI/ADR-RES ovarian, 33300 nM; with TK-10 renal, more than 100000 nM; in the test with BT-549 breast, more than 54900 nM; in the test with UO-31 renal, 1310 nM; with RXF 393 renal, more than 57400 nM. For the same compound, the TGI with HL-60(TB) leukemia is 795 nM; in the test on EKVX NSCLC it was more than 21600 nM; in the test on NCI-H226 lung it was more than 41900 nM; with SNB-75 CNS it was 10300 nM.
